Results from BindingDB's records for doi:10.1021/jm00109a029 (Research Biochemicals, 1991).

Test: Compound was evaluated for inhibition of specifically bound [3H]- cocaine (2.7 nM) against Dopamine transporter in cynomolgus monkeys

## COC(=O)C1C2CCC(C[C@@H]1c1ccc(F)cc1)N2 (stereo partly specified)
  IC50: 36 nM
